Measurements from patent publication EP1124440B1, “USE OF […] FOR FOODSTUFF AND COSMETIC MATERIAL” (Aquacal Limited, priority 1998, dated 2000).
Where two headings read alike, the source gives them in different places.

Assays:
[1] = biscuits cooked for exactly eleven minutes
Excerpt: Four batches of biscuits were made using the following recipe:
(§1) The biscuits were cooked for exactly eleven minutes and then analysed.
(§2) The following parameters were examined: friability, water activity (Aw) and colour.

[2] = water activity; biscuits cooked for exactly eleven minutes
Excerpt: as §1, §2

[3] = biscuits
Protocol: Colour was measured using LAB values. L. Brightness A. Red B. Yellow
The LAB values of the biscuits were measured using a Minolta colour meter.

[4] = ice-cream; B = Yellow Colour
Protocol: 3. Colour was measured using a Minolta colour meter and the results were expressed using LAB values: L = Lightness A = Red Colour B = Yellow Colour
4. A further batch of ice-cream was made to assess if calcium addition effected the over-run properties of the ice-cream.

## O=C([O-])[O-].[Ca+2] [Calcium Carbonate]
[1]
  Friability: significantly reduced
[2]
  Aw: significantly increased
[3]; A = Red
  A value: significantly reduced
[3]; B = Yellow
  B value: did not effect this value
[3]; L = Brightness
  L value: 72.87
[4]
  B value: significant difference
